Results on 28 compounds are retold here after US20240409519A1, “HYDROGENATED QUINOXALINES” (OTSUKA PHARMACEUTICAL CO., LTD., priority 2021, published 2024).

Series [1] deals with T1, norepinephrine (NE) uptake (Rattus norvegicus, UniProt Q63380).
T1 construct: used as crude synaptosomal fraction; from tissue; host or cells: rat hippocampus, crude synaptosomal fraction
The experiment in a line: Norepinephrine (NE) uptake inhibitory activity using rat brain synaptosome. Format: biochemical. As to conditions: rat hippocampus synaptosome, tritium-labeled NE 12 nM; read-out: IC50 (nM), norepinephrine (NE) uptake inhibition. The procedure: Male Wistar rats were decapitated, each brain was removed, and the hippocampus was cut out. […] The homogenate was centrifuged at 1000 g at 4° C. for 10 minutes, and the supernatant was further centrifuged at 20000 g at 4° C. for 20 minutes. The pellet was suspended in an incubation buffer (20 mM Hepes buffer (pH 7.4) containing 10 mM glucose, 145 mM sodium chloride, 4.5 mM potassium chloride, 1.2 mM magnesium chloride and 1.5 mM calcium chloride) and used as crude synaptosomal fraction.
Each well of a 96-well round-bottom plate was used for the uptake reaction in a total volume of 200 μL solution containing purgurin (final concentration 10 μM) and ascorbic acid (final concentration 0.2 mg/mL).
After 10 minutes, the uptake reaction was terminated by suction filtration onto a 96-well glass fiber filter plate. The filters were rinsed with cold physi-ological saline solution, dried thoroughly, and micro scintillation 0 (Perkin-Elmer) was added thereto. Then, the residual radioactivity on the filters was measured.
The uptake value when only solvent was added was set as 100%, the uptake value when unlabeled NE (final concentration 10 μM) was added as 0% (nonspecific uptake value), and the 50% inhibitory concentration was calculated from the concentration of the test compound and its inhibitory activity.

The target in series [2] is T2, CYP2D6 (Homo sapiens, UniProt P10635).
T2 construct: a human liver microsome solution containing three CYP-specific substrates; from tissue; host or cells: human liver microsomes
T2 sequence (P10635 whole entry): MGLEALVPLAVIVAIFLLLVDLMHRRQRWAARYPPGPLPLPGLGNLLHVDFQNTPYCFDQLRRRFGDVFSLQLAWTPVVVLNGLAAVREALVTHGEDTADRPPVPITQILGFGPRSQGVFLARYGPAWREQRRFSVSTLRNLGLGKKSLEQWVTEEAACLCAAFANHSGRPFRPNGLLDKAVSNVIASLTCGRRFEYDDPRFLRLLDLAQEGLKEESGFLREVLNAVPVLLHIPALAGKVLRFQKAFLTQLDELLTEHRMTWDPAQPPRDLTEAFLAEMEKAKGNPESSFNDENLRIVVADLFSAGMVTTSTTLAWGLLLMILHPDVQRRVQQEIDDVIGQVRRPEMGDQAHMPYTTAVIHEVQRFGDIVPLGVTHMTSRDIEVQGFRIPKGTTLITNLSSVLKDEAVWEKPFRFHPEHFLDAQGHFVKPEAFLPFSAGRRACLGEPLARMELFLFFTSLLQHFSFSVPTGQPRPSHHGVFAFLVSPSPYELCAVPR
The experiment in a line: CYP inhibition test (1): inhibition rate (%) at one concentration, CYP2D6. Particulars: human liver microsomes, pH 7.4, probe bufuralol (0.01 mmol/L); test compound 0.01 mmol/L, human liver microsome 0.1 mg/mL, substrate bufuralol, 37° C. 10 minutes; read-out: inhibition rate (%) 2D6. Format: in vitro ADME. The procedure:
A metabolic reaction was initiated by adding and mixing a test compound solution (final concentration 0.01 mmol/L) and a NADH/NADPH solution (final concentration 1 mmol/L) to a human liver microsome solution containing three CYP-specific substrates (final concentration 100 mmol/L potassium phosphate buffer solution (pH 7.4), 5 mmol/L magnesium chloride, 0.1 mg/mL human liver microsome, 0.005 mmol/L diclofenac (for CYP2C9), 0.01 mmol/L bufuralol (for […]), 0.005 mmol/L midazolam (for CYP3A4)). As an internal standard solution, a solution of each of stable isotopes of the metabolites (50 ng/mL [13C6] hydroxy diclofenac, 5 ng/mL [2H9] hydroxy bufuralol, and 5 ng/mL [13C6] hydroxy midazolam (all stable isotopes)) in methanol was prepared and used as a quenching solution.
Specifically, a metabolic reaction was initiated by adding and mixing 2 μL of a solution of a test compound in acetonitrile (or acetonitrile as a control) to 178 μL of a human liver microsome solution in ice water, followed by preincubation at 37° C. for 1 minute, and then adding 20 μL of a NADH/NADPH solution thereto. After incubation at 37° C. for 10 minutes, 50 μL of the reaction mixture was taken, and then it was added and mixed to 500 μL of a quenching solution to quech the reaction. The mixture was centrifuged (6130 g, 4° C., 10 minutes) and the supernatant was used as a sample for LC-MS/MS.
Peak area ratio ([peak area of metabolite]/[peak area of corresponding stable isotope]) was calculated for a metabolite and a stable isotope of the metabolite as measurement object. By comparing the peak area ratio of each test compound solution with that of the control, the inhibition rate (%) of each CYP species for each test compound was calculated from (1-[peak area ratio of each test compound solution]/[peak area ratio of control])×100.

Series [3] addresses T3, dopamine (DA) uptake (Rattus norvegicus, UniProt P23977).
T3 construct: used as crude synaptosomal fraction; from tissue; host or cells: rat striatum, crude synaptosomal fraction
The experiment in a line: Dopamine (DA) uptake inhibitory activity using rat brain synaptosome. As to conditions: rat striatum synaptosome, tritium-labeled DA 2 nM; read-out: IC50 (nM), dopamine (DA) uptake inhibition. Format: biochemical. The procedure:
Male Wistar rats were decapitated, each brain was removed, and the striatum was cut out. […] The homogenate was centrifuged at 1000 g at 4° C. for 10 minutes, and the supernatant was further centrifuged at 20000 g at 4° C. for 20 minutes. The pellet was suspended in an incubation buffer (20 mM Hepes buffer (pH 7.4) containing 10 mM glucose, 145 mM sodium chloride, 4.5 mM potassium chloride, 1.2 mM magnesium chloride and 1.5 mM calcium chloride) and used as crude synaptosomal fraction.
Each well of a 96-well round-bottom plate was used for the uptake reaction in a total volume of 200 μl solution containing purgurin (final concentration 10 μM) and ascorbic acid (final concentration 0.2 mg/mL). In other words, solvent, unlabeled DA or step-diluted test compound was added to each well, and one-tenth of the final volume of the synaptosomal fraction was added to each well, followed by pre-incubation at 37° C. for 10 minutes, and then tritium-labeled DA solution (final concentration 2 nM) was added and the uptake reaction was initiated at 37° C. After 10 minutes, the uptake reaction was terminated by suction filtration onto a 96-well glass fiber filter plate. The filters were rinsed with cold physi-ological saline solution, dried thoroughly, and micro scintillation 0 (Perkin-Elmer) was added thereto. Then, the residual radioactivity on the filters was measured.
The uptake value when only solvent was added was set as 100%, the uptake value when unlabeled DA (final concentration 10 μM) was added as 0% (nonspecific uptake value), and the 50% inhibitory concentration was calculated from the concentration of the test compound and its inhibitory activity.

T1 sequence (Q63380 1-617): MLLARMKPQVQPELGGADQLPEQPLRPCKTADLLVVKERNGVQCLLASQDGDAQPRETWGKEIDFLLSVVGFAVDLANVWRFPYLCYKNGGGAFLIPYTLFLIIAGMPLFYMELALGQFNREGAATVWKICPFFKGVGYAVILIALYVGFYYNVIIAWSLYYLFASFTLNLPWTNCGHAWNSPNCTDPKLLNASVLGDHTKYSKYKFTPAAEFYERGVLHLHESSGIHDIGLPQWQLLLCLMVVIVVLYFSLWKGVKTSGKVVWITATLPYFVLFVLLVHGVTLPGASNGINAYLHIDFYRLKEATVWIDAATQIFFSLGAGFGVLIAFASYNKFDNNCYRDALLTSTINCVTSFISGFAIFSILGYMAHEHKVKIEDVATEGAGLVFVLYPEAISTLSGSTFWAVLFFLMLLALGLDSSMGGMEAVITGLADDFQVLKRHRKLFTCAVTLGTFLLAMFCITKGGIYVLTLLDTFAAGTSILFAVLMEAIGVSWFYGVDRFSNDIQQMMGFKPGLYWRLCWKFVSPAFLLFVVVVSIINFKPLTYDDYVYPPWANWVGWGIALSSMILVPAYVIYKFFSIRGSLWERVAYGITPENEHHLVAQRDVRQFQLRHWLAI
T3 sequence (P23977 whole entry): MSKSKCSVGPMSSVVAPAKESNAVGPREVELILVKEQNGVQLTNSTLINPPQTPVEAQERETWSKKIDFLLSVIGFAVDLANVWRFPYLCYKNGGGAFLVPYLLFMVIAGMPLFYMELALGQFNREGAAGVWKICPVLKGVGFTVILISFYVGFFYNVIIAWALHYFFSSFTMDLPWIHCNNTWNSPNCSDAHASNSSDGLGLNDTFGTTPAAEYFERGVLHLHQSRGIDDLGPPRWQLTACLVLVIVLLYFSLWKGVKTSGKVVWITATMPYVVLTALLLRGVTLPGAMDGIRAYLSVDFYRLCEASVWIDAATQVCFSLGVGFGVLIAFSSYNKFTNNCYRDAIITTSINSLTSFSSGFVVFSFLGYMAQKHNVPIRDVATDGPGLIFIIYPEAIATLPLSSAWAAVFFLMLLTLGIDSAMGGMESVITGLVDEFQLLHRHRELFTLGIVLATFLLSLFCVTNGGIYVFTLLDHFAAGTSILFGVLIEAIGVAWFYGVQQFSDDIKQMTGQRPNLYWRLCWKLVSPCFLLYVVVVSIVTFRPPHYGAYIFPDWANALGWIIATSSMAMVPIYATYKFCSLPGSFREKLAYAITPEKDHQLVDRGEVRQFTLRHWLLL

In the case of `OCCOc1c(F)cc(N2CC3(CCC3)N[C@H]3CCCC[C@@H]32)cc1Cl` [Example 6], the IC50 in series [1] was determined as 8.4 nM; in series [3] it was 5.8 nM. The inhibition at 10 min, 0.01 mmol/L in series [2] is 15%.
The matching figures for `OCCOc1ccc(N2CC3(CCC3)N[C@H]3CCCC[C@@H]32)cc1` [Example 8]: 37.2 nM, 49.5 nM and 20.1%.
For `COc1cc(N2CC3(CCC3)N[C@H]3CCCC[C@@H]32)ccc1OCCO` [Example 11] the same measures were 91 nM, 97.9 nM and 14.2%.
For `Cc1cc(N2CC3(CCC3)N[C@H]3CCCC[C@@H]32)cc(F)c1OCCO` [Example 14] the same measures were 8.5 nM, 5.5 nM and 20.5%.
With `C[C@@H]1CN(c2cc(F)c(OCCO)c(Cl)c2)[C@H]2CCCC[C@@H]2N1` [Example 17, 2-(2-chloro-6-fluoro-4-((3R,4aS,8aS)-3-methyloctahydroquinoxalin-1(2H)-yl)phenoxy)ethan-1-ol 1/2fumarate], the IC50 amounted to 2.7 nM in series [1] and 7.6 nM in series [3].
For `C[C@H]1CN(c2cc(F)c(OCCO)c(Cl)c2)[C@H]2CCCC[C@H]2N1` [Example 18] the same measures were 13.3 nM and 42.9 nM.
With `C[C@@H]1CN(c2ccc(OC(F)(F)CO)c(Cl)c2)[C@H]2CCCC[C@@H]2N1` [Example 19], the IC50 in series [1] is 2.4 nM; in series [3] it was 47.4 nM. In addition, the inhibition at 10 min, 0.01 mmol/L in series [2] amounted to 5.9%.
Take `CC1(C)CN(c2ccc(OC(F)(F)CO)cc2)[C@H]2CCCC[C@@H]2N1` [Example 20, 2-(4-((4aS,8aS)-3,3-dimethyloctahydroquinoxalin-1(2H)-yl)phenoxy)-2,2-difluoroethan-1-ol]: the figures for the IC50 in series [1] and in series [3] were 4.4 nM and 90.9 nM, respectively.
The matching figures for `CC1(C)CN(c2ccc(OC(F)(F)CO)cc2)[C@@H]2CCCC[C@H]2N1` [Example 21]: 69 nM and 199 nM.
For the compound `COc1cc(N2CC(C)(C)N[C@H]3CCCC[C@@H]32)ccc1OC(F)(F)CO` [Example 26], the IC50 in series [1] worked out at 21.3 nM; in series [3], 213 nM.
`CC1(C)CN(c2ccc(OCCO)c(Cl)c2)[C@H]2CCCC[C@@H]2N1` [Example 27, 2-(2-chloro-4-((4aS,8aS)-3,3-dimethyloctahydroquinoxalin-1(2H)-yl)phenoxy)ethan-1-ol]: the concentration for half-maximal inhibition (IC50) was 7.7 nM in series [1] and 99 nM in series [3].
`CC1(C)CN(c2ccc(OCCO)c(Cl)c2)[C@@H]2CCCC[C@H]2N1` [Example 28]: the values for the half-maximal inhibitory concentration (IC50) in series [1] and in series [3] were 9.7 nM and 76.5 nM, respectively.
Consider `Cc1cc(N2CC(C)(C)N[C@H]3CCCC[C@@H]32)ccc1OC(F)(F)CO` [Example 31], for which the IC50 in series [1] was determined as 5.5 nM; in series [3], 56.4 nM.
The matching figures for `Cc1cc(N2CC(C)(C)N[C@@H]3CCCC[C@H]32)ccc1OC(F)(F)CO` [Example 32]: 7.5 nM and 60.7 nM.
Consider `CC1(C)CN(c2cc(F)c(OCCO)c(F)c2)[C@H]2CCCC[C@@H]2N1` [Example 34, 2-(4-((4aS,8aS)-3,3-dimethyloctahydroquinoxalin-1(2H)-yl)-2,6-difluorophenoxy)ethan-1-ol], for which the IC50 in series [1] was found to be 5.9 nM; in series [3], 73.2 nM.
For `CC1(C)CN(c2cc(F)c(OCCO)c(F)c2)[C@@H]2CCCC[C@H]2N1` [Example 35] the same measures were 6.8 nM and 59.7 nM.
For the compound `CC1(C)CN(c2cc(F)c(OCCO)c(F)c2)[C@H]2CCCC[C@H]2N1` [Example 36], the IC50 in series [1] turned out to be 5.1 nM; in series [3] it was 25.6 nM.
The matching figures for `CN1[C@H]2CCCC[C@@H]2N(c2ccc(OC(F)(F)CO)cc2)CC1(C)C` [Example 37, 2,2-difluoro-2-(4-((4aS,8aS)-3,3,4-trimethyloctahydroquinoxalin-1(2H)-yl)phenoxy)ethan-1-ol]: 34.5 nM and 81.9 nM.
`CC1(C)CN(c2ccc(OCCO)c(Cl)c2)[C@H]2CCCC[C@H]2N1` [Example 44, 2-(2-chloro-4-((4aR,8aS)-3,3-dimethyloctahydroquinoxalin-1(2H)-yl)phenoxy)ethan-1-ol 1/2fumarate]: the IC50 was 5.2 nM in series [1] and 37.5 nM in series [3]. Also, in series [2], the inhibition at 10 min, 0.01 mmol/L came out at 10.2%.
Consider `Cc1cc(N2CC(C)(C)N[C@@H]3CCCC[C@@H]32)ccc1OC(F)(F)CO` [Example 48], for which the IC50 in series [1] was found to be 6.6 nM; in series [3], 68.6 nM. For the same compound, the inhibition at 10 min, 0.01 mmol/L in series [2] was -7.8%.
For the compound `CC1(C)CN(c2ccc(OCCO)c3occc23)[C@@H]2CCCC[C@@H]2N1` [Example 50], the IC50 in series [1] is 5.8 nM; in series [3], 214 nM. Also, the inhibition at 10 min, 0.01 mmol/L in series [2] was determined as 41.8%.
The matching figures for `CC1(C)CN(c2ccc(OCCO)c3occc23)[C@H]2CCCC[C@H]2N1` [Example 51]: 4.3 nM, 41.1 nM and 17%.
For `CC1(C)CN(c2ccc(OCCO)c(F)c2)[C@H]2CCCC[C@H]2N1` [Example 52] the same measures were 8.3 nM, 74.4 nM and 23%.
For `Cc1c(N2CC(C)(C)N[C@@H]3CCCC[C@@H]32)ccc(OC(F)(F)CO)c1F` [Example 57] the same measures were 4.9 nM, 88 nM and 14.9%.
Take `Cc1cc(N2CC(C)(C)N[C@@H]3CCCC[C@@H]32)cc(F)c1OC(F)(F)CO` [Example 58]: the IC50 in series [1] came to 6.4 nM; in series [3] it was 58.4 nM. In series [2], the inhibition at 10 min, 0.01 mmol/L turned out to be 16.1%.
For `CC1(C)CN(c2ccc(OC(F)(F)CO)cc2F)[C@H]2CCCC[C@H]2N1` [Example 61, 2-(4-((4aR,8aS)-3,3-dimethyloctahydroquinoxalin-1(2H)-yl)-3-fluorophenoxy)-2,2-difluoroethan-1-ol 1/2fumarate] the same measures were 6.1 nM, 60.2 nM and 16.1%.
The matching figures for `CC1(C)CN(c2cc(Br)c(OCCO)cc2F)[C@H]2CCCC[C@H]2N1` [Example 62]: 6.9 nM, 273 nM and 17.8%.
For `CC1(C)CN(c2ccc(OCCO)c(Br)c2F)[C@H]2CCCC[C@H]2N1` [Example 63] the same measures were 3.6 nM, 85.1 nM and 19.2%.
